Entries after “also recorded” stand apart in the source; their conditions may differ. Read-outs that look alike come from different tables or passages of the source.
What was measured:
[1] = ref National library of medicine, Daylimed; cited from earlier work
[2] = test system: rat primary cortical neurons
Description: (§1) At DIV28, spontaneous neuronal activity obtained for 30 min in culture solution was defined as the baseline.
(§2) Data analysis was captured using AxIs suite software (Axion Biosystems Inc., version 3.6.2) and further analyzed using GraphPad Prism (version 9.00; GraphPad Software Inc., San Diego, CA). […] An active well should have more than 40% active electrodes. All wells below this threshold were discarded upon these quality criteria. For the downstream statistical analysis, the data on each MEA parameter was first expressed as the ratio of exposed wells (percentage change between baseline and the treatment) and then normalized to the average of the control within the same plate. i.e., Baseline corrected ratios of n= 7 or eight wells were averaged per condition. Each well of the MEA served as its own control, and the changes in the electrical activity elicited by the treatments were expressed as a percentage of that control activity and normalized to the wells treated with the vehicle control dimethyl sulfoxide (DMSO). […] Differences were determined using the non-parametric Wilcoxon Mann Whitney test; p-values below 0.05 were considered significant. Data are expressed as means ± S.E.M.
(§3) Thereafter, based on the effects of vehicles and positive controls, we determined the cut-off points between the different effect zones according to the key parameters selected as described in the previous subsection. The zones were defined as follows. The “no effect” zone reflects parameter changes that are most likely within vehicle variability. The “mild” and “strong” zones are differentiated bidirectionally showing mild and strong effects.
(§4) The respective hazard class was determined by a cumulative scoring of individual parameters using a scoring matrix, which was based on the following three fundamental components: (1) selection of the six key relevant parameters, (2) defining the cutoffs for the level of effect, and (3) defining weighted points per parameter for the level of hazard potential. The scoring matrix concluded with the addition of a weighted point algorithm to discriminate distinct degrees of neuronal hazard. […] The weighted points were defined on the importance of a parameter (and the direction of effect), as well as the identification of an expected hazard for different pharmacological modes of action. The overall hazard score is derived from the sum of all weighted parameters, which could be converted into a specific hazard label. The weighted points and total score range associated with the various hazard labels were optimized using an iterative process.

[3] = seizure ADR frequency in SIDER; ref Campillos et al., 2008; Kuhn et al., 2010; cited from earlier work
[4] = Supplementary Table S1; cited from earlier work
[5] = established from VigiBase, SIDER, Elsevier drug information and FDA prescribing information
[6] = WHO adverse drug reactions VigiBase; ref Kumlien and Lundberg, 2010; cited from earlier work
[7] = test system: rat primary cortical neurons; experiment: MEA hazard scoring in rat primary cortical neuronal cultures; conditions: for hazard classification in the hazard scoring system: rat primary neurons on MEA
Description: as §1, §2, §3, §4

[8] = test system: Male rats (Sprague-Dawley); experiment: EEG recordings and behavioral seizures in freely moving rats; format: in vivo; conditions: freely moving rat, iv
Source text: Electroencephalogram (EEG) rodent studies and assessment of seizures: Male rats (n = 8) (Sprague-Dawley), 400-800 g, were surgically implanted with Stellar Implantable Transmitter (E−430001-IMP-77, Type PBT-M-C Pressure, Biopotential, Temp; TSE systems USA) and microchipped with RFID (Bio13. Therm.03V1 PLS, Biomark Inc, USA) transponder for measurements of activity and body temperature. EEG was used to confirm that convulsive activity is linked to seizurogenic activity measured on the EEG.

Row | Compound | FDA prescription information at therapeutic dose (Convulsion/ Seizure/Lower the seizure threshold/withdrawal) [1] | hazard score group in Figure 3 [2] | SIDER ADR on-/off-label [3] | Free Cmax highest [4] [nM] | Classification* (degree of seizure risk) [5] | Percentage seizures of total number of ADRs [6] [%] | hazard classification in the hazard scoring system [7] | hazard classification in the hazard scoring system [2] | firing rate (weighted mean firing rate) in MEA recordings ([7]; rodent cortical neurons in vitro) | EEG spikes ([8]; 1 mg/kg) | convulsions and seizures ([8]; 3 mg/kg)
1 | NCC(=O)O [Glycine] | not found on label | Neuro Active to hazard | no frequency information |  |  |  |  |  |  |  | 
2 | CCOC(=O)C1(c2ccccc2)CCN(C)CC1 [Pethidine] |  | Neuro Active to hazard | no frequency information | 250 |  |  |  |  |  |  | 
3 | CN1C[C@H](C(=O)N[C@]2(C)O[C@@]3(O)[C@@H]4CCCN4C(=O)[C@H](Cc4ccccc4)N3C2=O)C=C2c3cccc4[nH]cc(c34)C[C@H]21 [Ergotamine] | not found on label | Neuro Active to high hazard | not found on label | 0.4 | Risk | 0.8818 |  |  |  |  | 
4 | NCC1(CC(=O)O)CCCCC1 [Gabapentin] | On label | Neuro Active to high hazard | postmarketing | 2080 | Risk | 1.766 |  |  |  |  | 
5 | O=C1CN=C(c2ccccc2Cl)c2cc([N+](=O)[O-])ccc2N1 [Clonazepam] | on label | Neuro Active to hazard | not found on label | 12 | Risk | 2.831 | hazards |  |  |  | 
6 | CN1CCC[C@H]1c1cccnc1 [Nicotine] | not found on label | Non-Neuro Active | not found on label | 180 |  |  |  | non-neuroactive |  |  | 
7 | CN1C(=O)CN=C(c2ccccc2)c2cc(Cl)ccc21 [Diazepam] | On label | Neuro Active to high hazard |  |  |  |  |  |  |  |  | 
8 | Nc1ccncc1 [4-Aminopyridine] |  | Neuro Active to high hazard | no frequency information | 240 | Risk | 2.353 |  |  | largely increased | significantly increased | induced convulsions and seizures
9 | CC(C)C[C@H](CN)CC(=O)O [Pregabalin] |  | Non-Neuro Active |  |  |  | 0.8034 |  |  |  |  | 
10 | CCCC(C)C1(CC)C(=O)NC(=O)NC1=O (stereo not drawn) [Pentobarbital] | not found on label | Neuro Active to hazard | not found on label | 5100 | Risk | 3.3557 |  |  |  |  | 
11 | N#Cc1ccccc1-c1cc(-c2ccccn2)cn(-c2ccccc2)c1=O [Perampanel] | not found on label |  | not found on label | 163 | Low risk | 7.31 | hazards; also recorded: high hazard |  |  |  | 

Reference: paper PMC11170107, “Development of a new hazard scoring system in primary neuronal cell cultures for drug-induced acute neuronal toxicity identification in early drug discovery” (Frontiers in Pharmacology, 2024)
